ChEMBL document CHEMBL1123114, “Structure-activity relationships of arylimidazopyridine cardiotonics: discovery and inotropic activity of 2-[2-methoxy-4-(methylsulfinyl)phenyl]-1H-imidazo[4,5-c]pyridine” (1985)

Columns and labels:
Canis familiaris [1] = assay: Percent change in heart rate in anesthetized dog; ED50 not obtained; format: functional, organism-based; conditions: Canis lupus familiaris
Felis catus [2] = species on record: Felis catus; assay: Response ratio = (percent increase to drug)/(percent increase to 10 E-5 M isoproterenol); format: functional
Canis familiaris [3] = assay: Compound tested for contractility in anesthetized dog when administered intravenously; ED50 not obtained; format: functional, organism-based; conditions: Canis lupus familiaris
Felis catus [4] = species on record: Felis catus; assay: Compound tested for contractility in isolated cat papillary muscle at 10 e-4 M.; format: functional
Canis familiaris [5] = assay: Percent change in mean arterial blood pressure in anesthetized dog; ED50 not obtained; format: functional, organism-based; conditions: Canis lupus familiaris
Felis catus [6] = species on record: Felis catus; assay: Compound tested for contractility in isolated cat papillary muscle at 10 e-5 M.; format: functional
Felis catus [7] = species on record: Felis catus; assay: Response ratio = (percent increase to drug)/(percent increase to 10 E-4 M isoproterenol); format: functional
Canis familiaris [8] = assay: Percent change in mean arterial blood pressure in anesthetized dog; format: functional, Canis lupus familiaris
Canis familiaris [9] = assay: Compound tested for contractility in anesthetized dog when administered intravenously.; format: functional; conditions: Canis lupus familiaris, iv
Felis catus [10] = species on record: Felis catus; assay: Compound tested for contractility in isolated cat papillary muscle at 10 e-6 M.; format: functional
Canis familiaris [11] = assay: Percent change in heart rate in anesthetized dog; format: functional, Canis lupus familiaris
Felis catus [12] = species on record: Felis catus; assay: Response ratio = (percent increase to drug)/(percent increase to 10 E-6 M isoproterenol); format: functional
Canis familiaris [13] = assay: maximum percent increase in contractility in anesthetized dog when administered 4 mg/Kg intravenously; format: functional, Canis lupus familiaris

Structure (SMILES) | ED50 (Canis familiaris [1]) | Response ratio (Felis catus [2]) | ED50 (Canis familiaris [3]) | Control (Felis catus [4]) | ED50 (Canis familiaris [5]) | Control (Felis catus [6]) | Response ratio (Felis catus [7]) | Change (Canis familiaris [8]) | ED50 (Canis familiaris [9]) | Control (Felis catus [10]) | Change (Canis familiaris [11]) | Response ratio (Felis catus [12]) | Increase (Canis familiaris [13])
COc1ccc(-c2nc3cccnc3[nH]2)cc1 | ED50 not obtained | 0.06 | ED50 not obtained | 173% | ED50 not obtained | 104% | 1.01 | – | – | – | – | – | –
CCOc1cc([S+](C)[O-])ccc1-c1nc2cc[nH]cc-2n1 (stereo not drawn) | – | 1.15 | – | 262% | – | 183% | 2.25 | -4% | 0.1 mg/kg | 113% | 14% | 0.18 | –
CCCCOc1ccc(-c2nc3cc[nH]cc-3n2)cc1 | – | 0.19 | – | 288% | – | 114% | 2.61 | – | – | – | – | 0.19 | –
CCOc1cc(S(C)(=O)=O)ccc1-c1nc2cc[nH]cc-2n1 | – | 0.51 | – | 198% | – | 137% | 1.36 | -11% | 0.07 mg/kg | – | 7% | – | –
CS(=O)(=O)c1ccc(-c2nc3cc[nH]cc-3n2)cc1 | – | 0.24 | – | 137% | – | 117% | 0.51 | 2% | 7.5 mg/kg | – | 10% | – | –
CN(C)c1ccc(-c2nc3cc[nH]cc-3n2)cc1 | – | -0.08 | – | 175% | – | 94% | 1.04 | – | – | – | – | – | <50%
c1ccc(-c2nc3ccc[nH]c-3n2)cc1 | – | 0.01 | – | 112% | – | 101% | 0.15 | -36% | 8 mg/kg | – | 7% | – | –
COc1cc(Cl)ccc1-c1nc2cc[nH]cc-2n1 | – | 0.86 | – | 165% | – | 162% | 0.9 | -21% | 0.23 mg/kg | 123% | 14% | 0.32 | –
CCCOc1cc(OC)ccc1-c1nc2cc[nH]cc-2n1 | – | 0.47 | – | 336% | – | 134% | 3.27 | -59% | 1.3 mg/kg | – | -7% | – | –
COc1cc([S+](C)[O-])ccc1-c1nc2cnccc2[nH]1 (stereo not drawn) [ISOMAZOLE] | – | 1 | – | 268% | – | 172% | 2.33 | -1% | 0.03 mg/kg | – | 7% | – | –
COc1cc(SC)ccc1-c1nc2cc[nH]cc-2n1 | – | 0.6 | – | 142% | – | 143% | 0.59 | -17% | 0.2 mg/kg | – | 9% | – | –
CCSCCOc1cc(OC)ccc1-c1nc2cc[nH]cc-2n1 | – | 0.39 | – | 134% | – | 128% | 0.47 | -21% | 1 mg/kg | – | 20% | – | –
Nc1cc(-c2ccncc2)c[nH]c1=O [INAMRINONE] | – | 0.61 | – | 190% | – | 143% | 1.25 | -9% | 1.3 mg/kg | – | 11% | – | –
COc1cc(Oc2ccccc2)ccc1-c1nc2cc[nH]cc-2n1 | – | 0.3 | – | 155% | – | 122% | 0.76 | – | – | – | – | – | <50%
COc1ccc(-c2nc3cc[nH]cc-3n2)cc1OC | – | 0.89 | – | 252% | – | 164% | 2.11 | -9% | 0.4 mg/kg | – | 15% | – | –
Cc1ccc(-c2nc3cc[nH]cc-3n2)c(C)c1 | – | -0.1 | – | 100% | – | 93% | 0 | -24% | 1.4 mg/kg | – | 12% | – | –
CCCOc1cc([S+](C)[O-])ccc1-c1nc2cc[nH]cc-2n1 (stereo not drawn) | – | 0.3 | – | 159% | – | 122% | 0.82 | -33% | 1 mg/kg | – | 10% | – | –
COc1cc(S(C)(=O)=O)ccc1-c1nc2ccncc2[nH]1 | – | 1.05 | – | 221% | – | 176% | 1.68 | -5% | 0.02 mg/kg | – | 8% | – | –
Cc1cccc(-c2nc3cc[nH]cc-3n2)c1 | – | 0.25 | – | 195% | – | 118% | 1.32 | -20% | 1 mg/kg | – | 17% | – | –
COc1ccc(-c2nc3ccc[nH]c-3n2)c(OC)c1 | – | 1 | – | 264% | – | 172% | 2.27 | -22% | 0.8 mg/kg | – | 18% | – | –
COc1cc([N+](=O)[O-])ccc1-c1nc2cc[nH]cc-2n1 | – | 0.58 | – | 144% | – | 142% | 0.61 | -23% | 0.015 mg/kg | 127% | 5% | 0.38 | –
COc1cc([S+](C)[O-])ccc1-c1nc2cccnc2[nH]1 (stereo not drawn) [SULMAZOLE] | – | 0.16 | – | 156% | – | 112% | 0.78 | -10% | 0.3 mg/kg | – | 13% | – | –
COc1ccc(-c2nc3cc[nH]cc-3n2)c(OCCSC)c1 | – | 0.3 | – | 140% | – | 122% | 0.55 | -21% | 1.1 mg/kg | – | 4% | – | –
Cc1ccccc1-c1nc2cc[nH]cc-2n1 | – | 0.09 | – | 188% | – | 106% | 1.22 | -20% | 2.2 mg/kg | – | 24% | – | –
COc1cc([S+](C)[O-])ccc1-c1nc2c[nH]cnc-2n1 (stereo not drawn) | – | 0.21 | – | 142% | – | 115% | 0.58 | 14% | 0.6 mg/kg | – | 8% | – | –
CSc1ccc(-c2nc3cc[nH]cc-3n2)cc1 | – | 0.21 | – | 212% | – | 115% | 1.55 | -15% | 4 mg/kg | – | 0% | – | –
Cc1ccc(-c2nc3cc[nH]cc-3n2)cc1C | – | 0.46 | – | 226% | – | 133% | 1.75 | -53% | 5.2 mg/kg | – | 0% | – | –
COc1ccc(-c2nc3cc[nH]cc-3n2)c(OCC[S+](C)[O-])c1 (stereo not drawn) | – | 0.32 | – | 186% | – | 123% | 1.19 | -37% | 5.2 mg/kg | – | -4% | – | –
COc1ccc(-c2nc3cc[nH]cc-3n2)c(OC)c1 | – | 0.81 | – | 172% | – | 158% | 1 | -17% | 0.3 mg/kg | – | 9% | – | –
